The values that follow are results of earlier work, collected in patent publication US9932637B2, “Genetic polymorphisms associated with cardiovascular disorders and drug response, methods of detection and uses thereof” (CELERA CORPORATION, priority 2003, dated 2018).

This series relates to subjects with average cholesterol levels. Conditions: AFCAPS/TexCAPS; cited from earlier work.

Consider `CC[C@H](C)C(=O)O[C@H]1C[C@@H](C)C=C2C=C[C@H](C)[C@H](CC[C@@H]3C[C@@H](O)CC(=O)O3)[C@H]21` [lovastatin], for which the “LDL-C reduced (average)” value is 25% and the events decreased is recorded as 37%.
